# Test system: U2OS
# Assay: Growth inhibition of human U2OS cells after 3 days in presence of werner syndrome helicase inhibitor NSC 19630
# Type: functional
structure (smiles),measurement,value
Cc1oc2nc1-c1nc(co1)-c1nc(co1)-c1nc(co1)-c1nc(co1)-c1nc(co1)C1=NC(CS1)c1nc-2c(C)o1 (stereo unspecified) [TELOMESTATIN],growth inhibition (GI),70%
